Results on 7 molecules are retold here after patent US20050214328A1, “Methods of using and compositions comprising immunomodulatory compounds for the treatment and management of skin diseases or disorders” (priority 2004, published 2005).

Structures are written as SMILES. ≈ marks a conversion by molar mass, not a printed value. Where “and” joins values, the source holds several entries; their conditions need not be identical. Equal values may be shown once.

The test system of data set [1] is TNF-α. In words: Inhibition of TNF-α production following LPS-stimulation of human PBMC. The class given is cell-based. The conditions noted are these: for IC50: human PBMC, LPS, read-out: IC50 for inhibiting production of TNF-α following LPS-stimulation of PBMC; for secretion of the pro-inflammatory cytokine TNF-α: in vitro. An excerpt:
(§1) The pharmacological properties of 3-(4-amino-1-oxo-1,3-dihydro-isoindol-2-yl)-piperidine-2,6-dione or 4-(amino)-2-(2,6-dioxo-(3-piperidyl))-isoindoline-1,3-dione, including activity comparisons with thalidomide, are characterized in in vitro studies. Studies examined the effects of 3-(4-amino-1-oxo-1,3-dihydro-isoindol-2-yl)-piperidine-2,6-dione, 4-(amino)-2-(2,6-dioxo-(3-piperidyl))-isoindoline-1,3-dione or thalidomide on the production of various cytokines.
(§2) Inhibitions of TNF-α production following LPS-stimulation of human PBMC and human whole blood by an immunomodulatory compound such as 3-(4-amino-1-oxo-1,3-dihydro-isoindol-2-yl)-piperidine-2,6-dione, 4-(amino)-2-(2,6-dioxo-(3-piperidyl))-isoindoline-1,3-dione or thalidomide were investigated in vitro.

In data set [2] the test system is TNF-α. Description: Inhibition of TNF-α production following LPS-stimulation of human whole blood. The conditions noted are these: read-out: IC50 for inhibiting production of TNF-α following LPS-stimulation of human whole blood. The class given is cell-based.
Description: as §2

A further data set relates to IFN-γ. In words: IFN-γ production following TCR activation of T-cells. Type of data set: cell-based. The note with it: in vitro.
Description: as §1

The subject of a further data set is TNF-α mRNA. In words: Degradation of TNF-α mRNA. The class given is cell-based. The note with it: in vitro.
Description: as §1

The subject of data set [3] is actinic or senile keratoses. Description: Clinical study in patients with actinic or senile keratoses. The class given is in vivo, human. The conditions noted are these: oral 25 mg daily, continuous, baseline vs after eight weeks, FIG. 1. The protocol: 3-(4-Amino-1-oxo-1,3-dihydro-isoindol-2-yl)-piperidine-2,6-dione or 4-(amino)-2-(2,6-dioxo-(3-piperidyl))-isoindoline-1,3-dione is administered in an amount of from about 1 to about 25 mg per day to patients with keratoses for eight weeks, and the responses are subsequently assessed. For example, clinical studies are performed for 3-(4-amino-1-oxo-1,3-dihydro-isoindol-2-yl)-piperidine-2,6-dione in patients with actinic or senile keratoses. Patients receive continuous treatment with the compound at a oral dose of 25 mg daily.

The next data set relates to IL10. In words: Production of anti-inflammatory cytokine IL10 by PBMC. The conditions noted are these: for production of the anti-inflammatory cytokine IL10: PBMC; for secretion of the anti-inflammatory cytokine IL10: in vitro. The class given is cell-based.
Description: as §1

The next data set has as its system acne. Description: Clinical study in acne. Type of data set: in vivo, human. The conditions noted are these: oral about 5 mg daily, continuous. The protocol: 3-(4-Amino-1-oxo-1,3-dihydro-isoindol-2-yl)-piperidine-2,6-dione or 4-(amino)-2-(2,6-dioxo-(3-piperidyl))-isoindoline-1,3-dione is administered in an amount of from about 1 to about 25 mg per day to treat acne. Patients receive continuous treatment with the compound at a oral dose of about 5 mg daily.

A further data set deals with wrinkles. Description: Clinical study in patients with wrinkles. The note with it: oral about 5 mg daily, continuous. The class given is in vivo, human. Here is the method: 3-(4-Amino-1-oxo-1,3-dihydro-isoindol-2-yl)-piperidine-2,6-dione or 4-(amino)-2-(2,6-dioxo-(3-piperidyl))-isoindoline-1,3-dione is administered in an amount of from about 1 to about 25 mg per day to reduce or correct wrinkles of patients. For example, clinical studies are performed for 3-(4-amino-1-oxo-1,3-dihydro-isoindol-2-yl)-piperidine-2,6-dione in patients with wrinkles. Patients receive continuous treatment with the compound at a oral dose of about 5 mg daily.

A further data set concerns IL6. Description: LPS-stimulated production of IL6 by PBMC. Type of data set: cell-based. The note with it: for secretion of the pro-inflammatory cytokine IL6: in vitro.
Description: as §1

The test system of another data set is T-cells. Description: Proliferation of T-cells following primary induction by T-cell receptor (TCR) activation. The class given is cell-based. The conditions noted are these: in vitro.
Description: as §1

In another data set the test system is IL2. In words: IL2 production following TCR activation of PBMC. The class given is cell-based. The conditions noted are these: in vitro.
Description: as §1

In data set [4] the test system is cardiovascular and respiratory functions. The note with it: dog, in vivo; for arterial blood pressure: 2 mg/kg. Here is the method: In addition, a safety pharmacology study of 3-(4-amino-1-oxo-1,3-dihydro-isoindol-2-yl)-piperidine-2,6-dione or 4-(amino)-2-(2,6-dioxo-(3-piperidyl))-isoindoline-1,3-dione was conducted in dogs. The effects of the compound on cardiovascular and respiratory functions were examined in anesthetized dogs. One group of Beagle dogs (2/sex/group) received three doses of vehicle only and the other received three ascending doses of 2, 10 and 20 mg/kg of the compound. […] The cardiovascular and respiratory changes induced by the compound were minimal at all doses when compared to the vehicle control group.

The next data set concerns IL1β. In words: LPS-stimulated production of IL1β by PBMC. Type of data set: cell-based. The conditions noted are these: for secretion of the pro-inflammatory cytokine IL1β: in vitro.
Description: as §1

For data set [5] the following is noted: cited from earlier work; for interconversion in acetone: acetone (and other anhydrous) solvent systems.

For orientation: IC50 means the concentration that inhibits the measured activity by half. With `Nc1cccc2c1CN(C1CCC(=O)NC1=O)C2=O` (stereo not shown) [3-(4-amino-1-oxo-1,3-dihydro-isoindol-2-yl)-piperidine-2,6-dione], in the data set on TNF-α [1], the “LPS-stimulated production of TNF-α by PBMC” value is “dose-dependent inhibition”; the IC50 is ~100 nM and 0.0259 µg/mL; the “secretion of the pro-inflammatory cytokine TNF-α” value was “markedly inhibited”. Besides, in the data set with TNF-α [2], the half-inhibitory concentration (IC50) is ~480 nM and 0.104 µg/mL. Further, in the data set with IFN-γ, the IFN-γ production entry is recorded as “induced”. Further, the “degradation of TNF-α mRNA” value in the data set with TNF-α mRNA is “enhanced”. In addition, the “clinical response in patients with actinic or senile keratoses” value in data set [3] was “remarkable clinical benefit”. In the data set with IL10, the “production of the anti-inflammatory cytokine IL10” value is recorded as “increased” and the “secretion of the anti-inflammatory cytokine IL10” value is on record as “increased”. In the data set with acne, the “acne (size and number of visible cutaneous infections and/or pimples)” value is recorded as “significant improvements”. For the same molecule, the “clinical response in patients with wrinkles” value in the data set with wrinkles is listed as “remarkable clinical benefit”. In addition, in the data set on IL6, the “LPS-stimulated production of IL6 by PBMC” value is “dose-dependent inhibition” and the “secretion of the pro-inflammatory cytokine IL6” value is reported as “markedly inhibited”. In the data set on T-cells, the T-cell proliferation result is “induced”. For the same molecule, in the data set on IL2, the IL2 production result was “induced”. In data set [4], the “deviations in femoral blood flow, respiratory parameters and QTc interval” value was “not considered treatment-related”; the arterial blood pressure result is “small transient increase”. Also, in the data set on IL1β, the “LPS-stimulated production of IL1β by PBMC” value is reported as “dose-dependent inhibition” and the “secretion of the pro-inflammatory cytokine IL1β” value is “markedly inhibited”.

For the molecule `Nc1cccc2c1C(=O)N(C1CCC(=O)NC1=O)C2=O` (stereo not shown) [4-(amino)-2-(2,6-dioxo(3-piperidyl))-isoindoline-1,3-dione], in the data set on TNF-α [1], the “LPS-stimulated production of TNF-α by PBMC” value is listed as “dose-dependent inhibition”; the IC50 is ~24 nM and 0.00655 µg/mL; the “secretion of the pro-inflammatory cytokine TNF-α” value is reported as “markedly inhibited”. Besides, in the data set on TNF-α [2], the half-inhibitory concentration (IC50) is ~25 nM and 0.00683 µg/mL. For the same molecule, the IFN-γ production result in the data set with IFN-γ was “induced”. The “degradation of TNF-α mRNA” value in the data set with TNF-α mRNA is listed as “enhanced”. In addition, in the data set with IL10, the “production of the anti-inflammatory cytokine IL10” value is given as “increased” and the “secretion of the anti-inflammatory cytokine IL10” value is recorded as “increased”. Moreover, the “acne (size and number of visible cutaneous infections and/or pimples)” value in the data set on acne is “significant improvements”. In addition, in the data set on IL6, the “LPS-stimulated production of IL6 by PBMC” value is given as “dose-dependent inhibition” and the “secretion of the pro-inflammatory cytokine IL6” value is recorded as “markedly inhibited”. For the same molecule, in the data set on T-cells, the T-cell proliferation result is “induced”. For the same molecule, the IL2 production result in the data set on IL2 is reported as “induced”. In addition, in [4], the “deviations in femoral blood flow, respiratory parameters and QTc interval” value is given as “not considered treatment-related”; the arterial blood pressure entry is on record as “small transient increase”. Further, in the data set on IL1β, the “LPS-stimulated production of IL1β by PBMC” value is “dose-dependent inhibition” and the “secretion of the pro-inflammatory cytokine IL1β” value is on record as “markedly inhibited”.

Consider `Nc1cccc2c1CN(C1CCC(=O)NC1=O)C2=O` (stereo not shown) [Form B, 3-(4-amino-1-oxo-1,3 dihydro-isoindol-2-yl)-piperidene-2,6-dione], for which the “form conversion upon heating” value in data set [5] (175° C. for about five minutes) is reported as “convert to Form F”. Further, the interconversion in acetone entry in data set [5] is reported as “converts to other forms”. In addition, the “form stability / interconversion in aqueous solvent systems” value in data set [5] (aqueous solvent systems) is listed as “converts to Form E”.

For `Nc1cccc2c1CN(C1CCC(=O)NC1=O)C2=O` (stereo not shown) [Form C, 3-(4-amino-1-oxo-1,3 dihydro-isoindol-2-yl)-piperidene-2,6-dione], the hygroscopicity entry in [5] (below about 85% RH) is given as “not hygroscopic”. The “form conversion at higher relative humidities” value in data set [5] is “can convert to Form B”.

As for `Nc1cccc2c1CN(C1CCC(=O)NC1=O)C2=O` (stereo not shown) [Form D, 3-(4-amino-1-oxo-1,3 dihydro-isoindol-2-yl)-piperidene-2,6-dione], the “form conversion at higher relative humidities” value in data set [5] is recorded as “convert to Form B”.

Take `Nc1cccc2c1CN(C1CCC(=O)NC1=O)C2=O` (stereo not shown) [Form E, 3-(4-amino-1-oxo-1,3 dihydro-isoindol-2-yl)-piperidene-2,6-dione]: the “interconversion in THF” value in data set [5] (THF solvent system) was “Form G”. Moreover, the “form conversion upon heating (desolvation)” value in [5] (about 125° C. for about five minutes) was “convert to Form B”. Also, the interconversion in acetone entry in data set [5] was “convert to Form C”.

With `O=C1CCC(N2C(=O)c3ccccc3C2=O)C(=O)N1` (stereo not shown) [Thalidomide, thalidomide, reference compound], the IC50 in the data set with TNF-α [1] was found to be 50.1 µg/mL (≈ 194 µM).
